The values below are quoted from earlier work in patent US20200222451A1, “Composition” (Optibiotix Limited, priority 2017, published 2020).

For the series the following is noted: compared to placebo.

Consider chromium picolinate, for which, where the note is “P<0.0001”, the fat cravings result is recorded as “reduces” and the food intake result is reported as “reduces”. Further, where the note is “P<0.05”, the hunger levels result is reported as “reduces”. The body weight result (P<0.08) is “decrease”.
